Entries after “also recorded” stand apart in the source; their conditions may differ. Counter-ions that a name gives are not always drawn.
Columns and labels:
Format in all cases: cell-based
[1] = target: T1, human nAChR alpha3alpha5beta4 (Homo sapiens, UniProt P30532+P30926+P32297); test: Agonist activity, two-electrode voltage clamp in Xenopus oocytes (Examples 2 and 5); details: for agonist character: versus ACh response, mono-citrate
T1 construct: expressed in transfected cells; host or cells: Xenopus laevis oocytes (cDNA injection)
T1 sequence (P32297 32-505): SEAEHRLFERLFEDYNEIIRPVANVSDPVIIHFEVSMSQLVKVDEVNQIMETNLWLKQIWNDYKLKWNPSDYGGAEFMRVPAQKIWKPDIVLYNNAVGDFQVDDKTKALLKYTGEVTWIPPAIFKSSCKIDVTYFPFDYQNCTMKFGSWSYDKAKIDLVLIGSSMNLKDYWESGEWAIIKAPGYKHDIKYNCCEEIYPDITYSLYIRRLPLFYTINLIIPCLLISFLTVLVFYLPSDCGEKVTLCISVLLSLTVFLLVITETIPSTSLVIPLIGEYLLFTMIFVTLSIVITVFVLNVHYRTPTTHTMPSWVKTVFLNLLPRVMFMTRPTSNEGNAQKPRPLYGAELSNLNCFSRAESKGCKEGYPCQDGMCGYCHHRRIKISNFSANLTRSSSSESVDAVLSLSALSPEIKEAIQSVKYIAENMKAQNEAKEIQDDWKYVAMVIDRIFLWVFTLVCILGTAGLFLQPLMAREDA
T1 sequence (P30532 23-468): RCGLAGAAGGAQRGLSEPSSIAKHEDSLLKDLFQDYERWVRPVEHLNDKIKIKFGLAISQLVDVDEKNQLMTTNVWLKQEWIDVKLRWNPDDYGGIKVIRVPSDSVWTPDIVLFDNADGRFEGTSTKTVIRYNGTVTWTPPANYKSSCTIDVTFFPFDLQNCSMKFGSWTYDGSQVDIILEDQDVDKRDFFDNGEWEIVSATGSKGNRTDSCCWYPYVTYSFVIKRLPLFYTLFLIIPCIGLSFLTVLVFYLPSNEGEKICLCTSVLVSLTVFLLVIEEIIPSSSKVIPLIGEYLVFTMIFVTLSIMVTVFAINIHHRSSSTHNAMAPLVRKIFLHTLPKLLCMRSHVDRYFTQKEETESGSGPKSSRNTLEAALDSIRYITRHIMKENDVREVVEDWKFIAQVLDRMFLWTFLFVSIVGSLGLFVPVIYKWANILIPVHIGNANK
T1 sequence (P30926 22-498): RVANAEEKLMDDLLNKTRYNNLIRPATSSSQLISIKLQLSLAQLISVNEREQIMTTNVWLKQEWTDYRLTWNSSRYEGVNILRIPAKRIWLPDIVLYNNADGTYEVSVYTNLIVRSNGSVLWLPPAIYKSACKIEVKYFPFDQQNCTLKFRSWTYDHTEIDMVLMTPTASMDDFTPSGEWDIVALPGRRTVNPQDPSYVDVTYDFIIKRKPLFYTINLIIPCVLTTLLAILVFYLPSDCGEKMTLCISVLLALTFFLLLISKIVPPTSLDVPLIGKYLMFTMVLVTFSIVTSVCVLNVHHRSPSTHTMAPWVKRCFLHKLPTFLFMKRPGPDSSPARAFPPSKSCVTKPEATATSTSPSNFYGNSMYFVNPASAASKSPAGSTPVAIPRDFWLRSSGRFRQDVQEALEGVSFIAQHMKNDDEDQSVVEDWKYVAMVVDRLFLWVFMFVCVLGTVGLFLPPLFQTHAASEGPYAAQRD
Protocol: (§1) All experiments were carried out at human nAChRs expressed in Xenopus oocytes using the method of cDNA expression. Xenopus oocytes were prepared and injected using standard procedures.
(§2) Briefly, ovaries were harvested from Xenopus Laevis females that have been deeply anesthetized by cooling at 4° C. and Tricaine methanesulfonate (MS-222 at a concentration of 150 mg/L) in sodium bicarbonate (300 mg/L). Once anesthetized the animal was decapitated and pithed following the rules of animal rights from the Geneva canton. A small piece of ovary was isolated for immediate preparation while the remaining part was placed at 4° C. in a sterile Barth solution containing in mM NaCl 88, KCl 1, NaHCO32.4, HEPES 10, MgSO4.7H2O 0.82, Ca(NO3)2.4H2O 0.33, CaCl2.6H2O 0.41, at pH 7.4, and supplemented with 20 μg/ml of kanamycin, 100 unit/ml penicillin. All recordings were performed at 18° C. and cells superfused with OR2 medium containing in mM: NaCl 88, KCl 2.5, HEPES 5, CaCl2.2H2O 1.8, MgCl2.6H2O 1, pH 7.4.
(§3) Currents evoked by ACh or other agonists were recorded using an automated process equipped with standard two-electrode voltage-clamp configuration (TEVC). Data were captured and analyzed using a HiQScreen proprietary data acquisition and analysis software running under Matlab (Mathworks Inc.).
(§4) See Example 1. […] The test concentration of acetylcholine chloride was 1280 micromolar.
(§5) Injections of cDNAs encoding for the human alpha3beta4, alpha3alpha5beta4, alpha4beta2, and alpha7 were performed in at least 95 oocytes were performed using a proprietary automated injection and receptor expression examined at least two days later. Oocytes were poked with two electrodes and their membrane potential maintained, unless indicated, at −80 mV throughout the experiment.
(§6) A protocol to determine agonistic activity in the oocytes expressing the nAChRs was developed. The cells were exposed to a series of increasing concentrations of a compound agonist for 10 seconds each at two minute intervals. The current evoked from exposure to the agonist at each concentration was recorded. For oocytes expressing alpha7 nAChRs, exposure to the agonist was reduced to 5 seconds. This process was repeated for each agonist tested against each type of nAChR expressing cell.
(§7) To evaluate the agonistic properties of compound 1 hemi-galactarate dihydrate a protocol of brief exposures to a series of growing concentrations of compound 1 hemi-galactarate dihydrate was used.
(§8) Agonist Preparation: See Example 1. […] The test concentration of acetylcholine chloride was 1280 micromolar.
(§9) Experimental Procedures: Injections of cDNAs encoding for the human alpha3beta4, alpha3alpha5beta4, alpha4beta2, alpha4alpha6beta2, and alpha7 were performed in at least 95 oocytes using a proprietary automated injection device. Cellular receptor expression was examined at least two days later. Oocytes were poked with two electrodes and their membrane potential maintained, unless indicated, at −80 mV throughout the experiment.
as §6, with “developed. Oocytes expressing a nAChR subtype were exposed to a brief test pulse of acetylcholine (1280 micromolar) while the holding current and response was evaluated. Cells displaying robust currents were washed for 90 seconds.” for “developed.”, “were then” for “were”, “nAChR” for “compound”, “intervals. The nAChR agonist test concentrations were 0.1, 0.3, 1, 3, 10, 30, 100, 300 (micromolar).” for “intervals.”

human nAChR alpha3beta4 = target: T2, human nAChR alpha3beta4 (Homo sapiens, UniProt P30926+P32297); test: as above; details: for agonist character: versus ACh response, mono-citrate
T2 construct: expressed in transfected cells; host or cells: Xenopus laevis oocytes (cDNA injection)
T2 sequence (P32297 32-505): as the sequence (P32297 32-505) above
T2 sequence (P30926 22-498): as the sequence (P30926 22-498) above
Protocol: as §1, §2, §3, §4, §5, §6, §7, §8, §9
as §6, with “developed. Oocytes expressing a nAChR subtype were exposed to a brief test pulse of acetylcholine (1280 micromolar) while the holding current and response was evaluated. Cells displaying robust currents were washed for 90 seconds.” for “developed.”, “were then” for “were”, “nAChR” for “compound”, “intervals. The nAChR agonist test concentrations were 0.1, 0.3, 1, 3, 10, 30, 100, 300 (micromolar).” for “intervals.”

human nAChR alpha4beta2 = target: T3, human nAChR alpha4beta2 (Homo sapiens, UniProt P17787+P43681); test: as above; details: for agonist character: versus ACh response
T3 construct: expressed in transfected cells; host or cells: Xenopus laevis oocytes (cDNA injection)
T3 sequence (P43681 29-627 limits assumed): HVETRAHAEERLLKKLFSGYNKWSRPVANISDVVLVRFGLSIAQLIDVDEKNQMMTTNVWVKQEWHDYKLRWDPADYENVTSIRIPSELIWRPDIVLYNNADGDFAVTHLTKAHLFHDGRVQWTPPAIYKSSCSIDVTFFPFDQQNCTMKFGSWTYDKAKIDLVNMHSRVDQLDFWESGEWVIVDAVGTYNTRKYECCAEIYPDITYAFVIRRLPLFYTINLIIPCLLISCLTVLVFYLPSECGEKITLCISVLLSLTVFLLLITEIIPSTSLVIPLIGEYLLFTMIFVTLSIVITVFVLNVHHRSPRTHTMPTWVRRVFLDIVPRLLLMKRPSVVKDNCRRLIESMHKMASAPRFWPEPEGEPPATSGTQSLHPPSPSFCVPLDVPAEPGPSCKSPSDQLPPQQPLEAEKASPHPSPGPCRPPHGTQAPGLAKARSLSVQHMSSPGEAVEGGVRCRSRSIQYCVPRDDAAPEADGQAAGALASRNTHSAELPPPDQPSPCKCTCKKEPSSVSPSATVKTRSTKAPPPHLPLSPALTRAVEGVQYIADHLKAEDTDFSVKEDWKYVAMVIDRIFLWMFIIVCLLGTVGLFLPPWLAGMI
T3 sequence (P17787 26-502): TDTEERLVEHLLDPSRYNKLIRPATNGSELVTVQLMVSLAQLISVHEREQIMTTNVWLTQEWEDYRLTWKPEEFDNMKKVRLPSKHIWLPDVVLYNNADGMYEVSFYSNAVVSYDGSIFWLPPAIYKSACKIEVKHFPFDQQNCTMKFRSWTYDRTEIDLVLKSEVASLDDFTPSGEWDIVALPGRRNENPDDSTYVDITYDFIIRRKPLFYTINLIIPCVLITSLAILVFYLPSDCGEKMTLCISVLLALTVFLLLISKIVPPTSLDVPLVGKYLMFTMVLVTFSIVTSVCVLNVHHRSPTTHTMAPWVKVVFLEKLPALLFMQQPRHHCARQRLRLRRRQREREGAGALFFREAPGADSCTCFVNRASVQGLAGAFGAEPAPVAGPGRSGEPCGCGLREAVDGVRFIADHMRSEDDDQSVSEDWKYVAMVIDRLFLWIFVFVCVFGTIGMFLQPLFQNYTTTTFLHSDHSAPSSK
Protocol: as §1, §2, §3, §4, §5, §6, §7, §8, §9
as §6, with “developed. Oocytes expressing a nAChR subtype were exposed to a brief test pulse of acetylcholine (1280 micromolar) while the holding current and response was evaluated. Cells displaying robust currents were washed for 90 seconds.” for “developed.”, “were then” for “were”, “nAChR” for “compound”, “intervals. The nAChR agonist test concentrations were 0.1, 0.3, 1, 3, 10, 30, 100, 300 (micromolar).” for “intervals.”

human nAChR alpha7 = target: T4, human nAChR alpha7 (Homo sapiens, UniProt P36544); test: as above; details: for percent of the maximal ACh-evoked current: at 300 μM (300 micromolar) agonist; for percent of the maximal ACh-evoked current / agonist character: mono-citrate; for agonist character: versus ACh response
T4 construct: expressed in transfected cells; host or cells: Xenopus laevis oocytes (cDNA injection)
T4 sequence (P36544 23-502): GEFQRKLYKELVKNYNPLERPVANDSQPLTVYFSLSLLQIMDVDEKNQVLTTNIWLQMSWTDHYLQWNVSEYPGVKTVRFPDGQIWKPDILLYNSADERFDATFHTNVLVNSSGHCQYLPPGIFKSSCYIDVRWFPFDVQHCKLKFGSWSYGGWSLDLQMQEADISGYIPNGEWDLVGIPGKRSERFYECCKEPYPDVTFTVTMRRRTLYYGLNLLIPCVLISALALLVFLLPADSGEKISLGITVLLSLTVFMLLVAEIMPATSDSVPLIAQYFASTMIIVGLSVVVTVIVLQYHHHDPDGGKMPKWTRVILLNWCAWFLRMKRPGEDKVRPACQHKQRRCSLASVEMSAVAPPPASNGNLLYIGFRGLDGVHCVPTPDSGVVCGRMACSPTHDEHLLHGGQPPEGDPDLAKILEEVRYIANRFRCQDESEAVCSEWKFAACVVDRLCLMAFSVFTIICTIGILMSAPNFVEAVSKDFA
Protocol: as §1, §2, §3, §4, §5, §6, §7, §8, §9
as §6, with “developed. Oocytes expressing a nAChR subtype were exposed to a brief test pulse of acetylcholine (1280 micromolar) while the holding current and response was evaluated. Cells displaying robust currents were washed for 90 seconds.” for “developed.”, “were then” for “were”, “nAChR” for “compound”, “intervals. The nAChR agonist test concentrations were 0.1, 0.3, 1, 3, 10, 30, 100, 300 (micromolar).” for “intervals.”

[2] = target: T5, human nAChR alpha4alpha6beta2 (Homo sapiens, UniProt P17787+P43681+Q15825); test: Agonist activity, two-electrode voltage clamp in Xenopus oocytes (Example 5); details: for agonist character: versus ACh response, mono-citrate
T5 construct: expressed in transfected cells; host or cells: Xenopus laevis oocytes (cDNA injection)
T5 sequence (P43681 29-627 limits assumed): as the sequence (P43681 29-627 limits assumed) above
T5 sequence (Q15825 26-494): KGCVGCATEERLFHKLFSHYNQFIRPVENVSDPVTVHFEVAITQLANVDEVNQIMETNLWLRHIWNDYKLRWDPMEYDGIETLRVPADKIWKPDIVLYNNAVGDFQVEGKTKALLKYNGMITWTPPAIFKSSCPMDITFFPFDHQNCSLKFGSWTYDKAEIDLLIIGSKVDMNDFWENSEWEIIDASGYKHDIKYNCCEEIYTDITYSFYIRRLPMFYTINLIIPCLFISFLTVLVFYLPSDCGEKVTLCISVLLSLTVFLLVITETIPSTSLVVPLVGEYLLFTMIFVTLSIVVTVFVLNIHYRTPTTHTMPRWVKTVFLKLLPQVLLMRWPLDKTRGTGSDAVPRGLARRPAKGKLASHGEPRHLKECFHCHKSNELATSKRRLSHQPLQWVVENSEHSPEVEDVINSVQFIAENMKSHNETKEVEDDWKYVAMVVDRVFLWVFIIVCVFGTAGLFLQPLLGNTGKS
T5 sequence (P17787 26-502): as the sequence (P17787 26-502) above
Protocol: as §1, §2, §3, §8, §9
as §6, with “developed. Oocytes expressing a nAChR subtype were exposed to a brief test pulse of acetylcholine (1280 micromolar) while the holding current and response was evaluated. Cells displaying robust currents were washed for 90 seconds.” for “developed.”, “were then” for “were”, “nAChR” for “compound”, “intervals. The nAChR agonist test concentrations were 0.1, 0.3, 1, 3, 10, 30, 100, 300 (micromolar).” for “intervals.”

human alpha4beta2 nAChRs [3] = target: T6, human alpha4beta2 nAChRs (Homo sapiens, UniProt P17787+P43681); test: Positive allosteric modulation of agonist-evoked currents, two-electrode voltage clamp in Xenopus oocytes (Example 1); details: for positive allosteric modulator activity in the presence of compound 1 hemi-galactarate dihydrate: 1 μM PAM; for dependence of potentiation on the order of agonist and PAM application: agonist compound 1 hemi-galactarate dihydrate; for maximal current evoked by compound 1 hemi-galactarate dihydrate / shift of the concentration activation curve to compound 1 hemi-galactarate dihydrate: presence vs absence of 1 μM PAM
T6 construct: expressed in transfected cells; host or cells: Xenopus laevis oocytes (cDNA injection)
T6 sequence (P43681 29-627 limits assumed): as the sequence (P43681 29-627 limits assumed) above
T6 sequence (P17787 26-502): as the sequence (P17787 26-502) above
Protocol: • Acetylcholine chloride • 100 mM stock solution in bi-distilled water 1.3 Test system • Apparatus: Automated Injection and Recording Apparatus, HiQScreen • Species of donor animals: Xenopus • Strain of animals: Laevis • Origin (supplier) of animals: HiQScreen Sàrl, Geneva • Body Weight of animals: 150 g to 300 g • Animal maintenance 3 to 5 per vivarium • Room temperature: 20-22° C. • Lighting times: Vivarium were exposed to daylight with additional artificial lighting (6 am-8 pm in summer; 8 am-7 pm in winter). • Food: Food pellets, ad libitum • Source of biological material • and isolation procedure: Abdominal incision to remove ovaries • Experimental conditions in Oocyte incubation: Barth solution containing in mM NaCl 88, • vitro: […] OR2 medium containing in mM: […] Two-electrode voltage clamp, using proprietary automated system equipped with a Geneclamp amplifier (Axon Instrument, Foster City, Calif., USA), or HiClamp (Multichannel Systems, Germany) Abbreviations: Ach, Acetylcholine; nAChR, Nicotinic acetylcholine receptor; SEM, Standard error of the mean; PAM, Positive allosteric modulator All experiments were carried out at human nAChRs expressed in Xenopus oocytes using the method of cDNA expression. Xenopus oocytes were prepared and injected using standard procedures. Briefly, ovaries were harvested from Xenopus Laevis females that have been deeply anesthetized by cooling at 4° C. and Tricaine methanesulfonate (MS-222 at a concentration of 150 mg/L) in sodium bicarbonate (300 mg/L). Once anesthetized the animal was decapitated and pithed following the rules of animal rights from the Geneva canton. […] All recordings were performed at 18° C. and cells superfused with OR2 medium containing in mM: […] Currents evoked by ACh or other agonists were recorded using an automated process equipped with standard two-electrode voltage-clamp configuration (TEVC). Data were captured and analyzed using a HiQScreen proprietary data acquisition and analysis software running under Matlab (Mathworks Inc.). […] Compounds were dissolved in OR2 as stock solution (1 mM) and the final dilution to the desired concentration was made on the day of the experiment. Injections of cDNAs encoding for the human alpha4beta2, were performed in at least 95 oocytes were performed using a proprietary automated injection device (Hogg et al., J. Neurosci. Methods, 2008) and receptor expression examined at least two days later. Oocytes were poked with two electrodes and their membrane potential maintained, unless indicated, at −80 mV throughout the experiment. A protocol to determine the allosteric modulation at the alpha4beta2 nAChRs in the oocytes expressing the receptor was developed. Oocytes expressing alpha4beta2 nAChRs were exposed to increasing concentrations of ACh while the response was evaluated. This was repeated with the addition of a fixed concentration of the allosteric modulator. The current evoked from the exposure to the agonist with the modulator was recorded and compared to currents evoked in the absence of the modulator. To assess the effects of positive allosteric modulators (Br-PBTC and NS-9283) a protocol of determination of the concentration activation curve in absence and presence of the PAM was designed. […] To assess the positive allosteric modulator effects of NS-9283 at the compound 1 hemi-galactarate dihydrate the same experimental protocol was conducted using 1 μM of the modulator. […] To further evaluate the PAM effects, the modulation was measured either as a first application and compared versus the subsequent agonist evoked response or, vice versa, by first exposing the cell to the agonist alone and then to the PAM and the agonist applied during a sustained PAM exposure. […] The same experiment was then conducted for compound 1 hemi-galactarate dihydrate as the agonist and Br-PBTC as the modulator or NS-9283 as the modulator.

human alpha4beta2 nAChRs [4] = target: T6, human alpha4beta2 nAChRs; test: Desensitization by sustained (1 hour) agonist exposure and recovery, without and with PAM, Xenopus oocytes (Example 1); details: for effect of PAM on recovery from varenicline tartrate desensitization: 300 μM varenicline tartrate 1 hour, wash of 3 hours; for effect of PAM on recovery from varenicline tartrate desensitization / effect of PAM on amplitude of the current evoked by varenicline tartrate: 1 μM PAM; for effect of PAM on amplitude of the current evoked by varenicline tartrate: 300 μM varenicline tartrate; for effect of PAM on profile of compound 1 hemi-galactarate dihydrate desensitization and recovery: 1 mM agonist, co-application of 1 μM modulator

## C(=C\[C@H]1CCNC1)/c1cncnc1 [compound 1 citrate, (R)-5-((E)-2-pyrrolidin-3-ylvinyl)pyrimidine mono-citrate]
[1]; Example 5, read-out: EC50
  EC50: 83 ± 9.05 µM
[1]; listed as Compound 1 citrate
  agonist character: almost as a full agonist
[1]
  agonist character: almost full agonist
Human nAChR alpha3beta4; read-out: EC50
  EC50: 34.9 ± 4.53 µM
Human nAChR alpha3beta4; listed as Compound 1 citrate
  agonist character: almost as a full agonist
Human nAChR alpha3beta4
  agonist character: almost full agonist
Human nAChR alpha4beta2; Example 5, read-out: EC50
  EC50: 13.5 ± 2.06 µM
Human nAChR alpha4beta2; after exposure to the agonist concentration series, mono-citrate
  effect on the subsequent ACh-evoked current: Significant inhibition
Human nAChR alpha4beta2; listed as Compound 1 citrate, mono-citrate
  agonist character: almost as a full agonist
Human nAChR alpha4beta2; mono-citrate
  agonist character: almost full agonist
Human nAChR alpha7; 300 micromolar concentration
  fraction of the maximal ACh-evoked current: 25%
Human nAChR alpha7; Example 5, only an estimation
  EC50: 126 ± 28.5 µM
Human nAChR alpha7; listed as Compound 1 citrate
  percent of the maximal ACh-evoked current: 25%
  agonist character: poor agonist
Human nAChR alpha7
  percent of the maximal ACh-evoked current: 25%
  agonist character: weak partial agonist
[2]
  EC50: 13.1 ± 3.68 µM
  agonist character: almost full agonist
[2]; listed as Compound 1 citrate
  agonist character: almost as a full agonist

## O=C(N[C@@H]1CCCNC1)c1cc2cccc(Br)c2s1 [Br-PBTC, (R)-7-bromo-N-(piperidin-3-yl)benzo[b]thiophene-2-carboxamide]
Human alpha4beta2 nAChRs [3]
  positive allosteric modulator activity in the presence of compound 1 hemi-galactarate dihydrate: acts as a positive modulator; also recorded: potentiate the agonistic activity
  dependence of potentiation on the order of agonist and PAM application: independent on the exposure protocol
  maximal current evoked by compound 1 hemi-galactarate dihydrate: increase of the maximal evoked current; also recorded: increase of the amplitude of the current
  shift of the concentration activation curve to compound 1 hemi-galactarate dihydrate: significant shift to the left; also recorded: shifted to the left
Human alpha4beta2 nAChRs [4]
  effect of PAM on recovery from varenicline tartrate desensitization: almost complete recovery within 3 hours; also recorded: almost full recovery; also recorded: partially reversed
  effect of PAM on amplitude of the current evoked by varenicline tartrate: largely enhanced
  effect of PAM on profile of compound 1 hemi-galactarate dihydrate desensitization and recovery: minimal effect

## N#Cc1cccc(-c2nc(-c3cccnc3)no2)c1 [NS-9283, 3-[3-(3-Pyridinyl)-1,2,4-oxadiazol-5-yl]benzonitrile]
Human alpha4beta2 nAChRs [3]
  positive allosteric modulator activity in the presence of compound 1 hemi-galactarate dihydrate: acts as a positive allosteric modulator; also recorded: potentiate the agonistic activity
  dependence of potentiation on the order of agonist and PAM application: independent on the exposure protocol
  maximal current evoked by compound 1 hemi-galactarate dihydrate: no significant increase
  shift of the concentration activation curve to compound 1 hemi-galactarate dihydrate: significant shift to the left
Human alpha4beta2 nAChRs [4]
  effect of PAM on recovery from varenicline tartrate desensitization: failed to significantly modify the recovery time course
  effect of PAM on amplitude of the current evoked by varenicline tartrate: enhanced the response
  effect of PAM on profile of compound 1 hemi-galactarate dihydrate desensitization and recovery: minimal effect

From patent publication US20210379066A1, “COMBINATIONS OF POSITIVE ALLOSTERIC MODULATORS AND NICOTINIC ACETYLCHOLINE RECEPTOR AGONISTS FOR TREATING OCULAR CONDITIONS” (Oyster Point Pharma, Inc., priority 2018, published 2021)
